For one experiment, the target named is T1, JAK2 tyrosine kinase (Homo sapiens, UniProt O60674).
T1 construct: purchased Carnabioscience Co
The experiment in a line: Test 1: inhibitory activity to JAK2 tyrosine kinase (ELISA). It is filed as biochemical. The settings on record: 25 μM ATP in substrate solution, 30° C. for 1 hour, n=2. On the procedure: Test 1: Test for inhibitory activity to JAK2 and JAK3 tyrosine kinase 1. Preparation of Test Material
The test material was dissolved in dimethylsulfoxide (DMSO) to be 10 mM, and further diluted with DMSO to be 100-fold concentrations for measurement (1000, 300, 100, 30, 10, 3, 1, 0.3, 0.1, 0.03, 0.01 μM). In addition, solutions diluted with an assay buffer up to 20 times were used as solutions of the test material. As a negative control, a solution of DMSO diluted 20 times with an assay buffer was used. As the assay buffer, 15 mM Tris-Cl (pH 7.5), 0.01 v/v % Tween-20, and 1 mM dithiothreitol were used.
2. Measurement of the Activities of JAK2 and JAK3 Tyrosine Kinases
The activity was determined by ELISA. The solution of the test material (10 μl each; n=2) was placed in a streptavidine-coated 96 well plate (DELFIA Strip Plate 8×12 wells; Perkin Elmer), to which 20 μl each of substrate solution (625 nM biotin-labeled peptide substrate, 25 μM ATP, 25 mM MgCl2, 15 mM Tris-Cl (pH 7.5), 0.01 v/v % Tween-20, and 1 mM dithiothreitol), was added and stirred. Finally, 20 μl each of JAK2 tyrosine kinase (Carnabioscience Co.) (diluted to 0.75 nM with assay buffer) or JAK3 tyrosine kinase (Carnabioscience Co.) (diluted to 0.75 nM with assay buffer) was added, stirred and allowed to stand at 30° C. for 1 hour. The plate was washed 4 times with a washing buffer (50 mM Tris-Cl, pH 7.5, 150 mM NaCl, 0.02 v/v % Tween-20), and then a blocking buffer (0.1% Bovine Serum Albumin, 50 mM Tris-Cl, pH 7.5, 150 mM NaCl, 0.02 v/v % Tween-20)(150 μl each) was added for blocking at 30° C. for 30 minutes. Blocking buffer was removed, and there was added 100 μl each of horse radish peroxidase-labeled anti-phosphorylated tyrosin kinase antibody (BD Bioscience Co.) (diluted 10,000 times with blocking buffer). The plate was incubated at 30° C. for 30 minutes and then washed 4 times with a washing buffer, and 100 μl each of 3,3′,5,5′-tetramethylbenzidine (Sigma-Aldrich Co.) was added to develop color for 10 minutes. 0.1 M sulfuric acid (100 μl each) was added to stop the reaction. The absorbance was measured by means of a micro-plate reader (BIO-RAD; Model 3550) at 450 nm.
3. Analysis of the Results of the Measurement
The measured absorbance was subjected to a non-linear regression analysis by means of a SAS system (SAS Institute Inc.), and the concentration (IC50) of the test material which inhibited 50% of the activity of each tyrosine kinase was estimated.

The target in another experiment is T2, JAK3 tyrosine kinase (Homo sapiens, UniProt P52333).
T2 construct: purchased Carnabioscience Co
T2 sequence (P52333 1-1124): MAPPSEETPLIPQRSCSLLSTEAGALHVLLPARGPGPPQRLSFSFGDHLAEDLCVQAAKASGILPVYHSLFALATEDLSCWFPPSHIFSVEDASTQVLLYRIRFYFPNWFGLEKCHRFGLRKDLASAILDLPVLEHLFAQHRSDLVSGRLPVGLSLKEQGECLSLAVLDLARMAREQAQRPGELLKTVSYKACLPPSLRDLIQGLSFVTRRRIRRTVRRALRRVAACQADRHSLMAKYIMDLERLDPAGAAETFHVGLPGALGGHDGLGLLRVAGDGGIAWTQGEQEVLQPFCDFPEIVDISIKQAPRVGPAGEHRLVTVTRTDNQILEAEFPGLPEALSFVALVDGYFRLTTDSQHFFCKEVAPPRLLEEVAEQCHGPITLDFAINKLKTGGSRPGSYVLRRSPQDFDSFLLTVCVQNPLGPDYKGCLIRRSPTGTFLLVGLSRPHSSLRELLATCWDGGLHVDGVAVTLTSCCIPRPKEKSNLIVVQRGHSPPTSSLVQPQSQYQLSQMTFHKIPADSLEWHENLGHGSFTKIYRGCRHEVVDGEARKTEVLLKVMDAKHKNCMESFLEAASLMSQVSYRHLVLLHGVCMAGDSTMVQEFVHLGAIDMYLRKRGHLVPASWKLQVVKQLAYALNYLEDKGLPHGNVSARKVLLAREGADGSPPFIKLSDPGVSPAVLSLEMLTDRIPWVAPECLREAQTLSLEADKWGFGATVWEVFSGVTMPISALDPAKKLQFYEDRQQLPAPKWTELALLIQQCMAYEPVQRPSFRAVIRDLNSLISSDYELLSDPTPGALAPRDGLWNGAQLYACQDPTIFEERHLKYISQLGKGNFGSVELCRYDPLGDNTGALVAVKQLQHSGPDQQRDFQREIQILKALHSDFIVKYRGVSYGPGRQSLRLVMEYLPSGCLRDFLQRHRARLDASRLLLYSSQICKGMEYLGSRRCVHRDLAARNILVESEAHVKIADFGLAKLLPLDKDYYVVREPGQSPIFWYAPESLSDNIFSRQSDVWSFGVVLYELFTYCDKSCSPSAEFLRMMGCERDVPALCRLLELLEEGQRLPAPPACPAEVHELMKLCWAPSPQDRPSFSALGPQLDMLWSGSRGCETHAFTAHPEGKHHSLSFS
The experiment in a line: Test 1: inhibitory activity to JAK3 tyrosine kinase (ELISA). The experiment is classed as biochemical. The note with it: 25 μM ATP in substrate solution, 30° C. for 1 hour, n=2. In a few lines: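 ELISA of JAK3 kinase activity with absorbance read at 450 nm. Compounds were tested from DMSO dilution series at 100-fold the measurement concentrations (1000–0.01 μM), diluted up to 20 times in assay buffer, against a DMSO negative control. IC50 was estimated by non-linear regression of absorbance.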
(In an ELISA, binding on a coated surface is turned into a signal by an enzyme label.)

Where a name gives a salt, the structure may show the parent alone.

T1 sequence (O60674 whole entry): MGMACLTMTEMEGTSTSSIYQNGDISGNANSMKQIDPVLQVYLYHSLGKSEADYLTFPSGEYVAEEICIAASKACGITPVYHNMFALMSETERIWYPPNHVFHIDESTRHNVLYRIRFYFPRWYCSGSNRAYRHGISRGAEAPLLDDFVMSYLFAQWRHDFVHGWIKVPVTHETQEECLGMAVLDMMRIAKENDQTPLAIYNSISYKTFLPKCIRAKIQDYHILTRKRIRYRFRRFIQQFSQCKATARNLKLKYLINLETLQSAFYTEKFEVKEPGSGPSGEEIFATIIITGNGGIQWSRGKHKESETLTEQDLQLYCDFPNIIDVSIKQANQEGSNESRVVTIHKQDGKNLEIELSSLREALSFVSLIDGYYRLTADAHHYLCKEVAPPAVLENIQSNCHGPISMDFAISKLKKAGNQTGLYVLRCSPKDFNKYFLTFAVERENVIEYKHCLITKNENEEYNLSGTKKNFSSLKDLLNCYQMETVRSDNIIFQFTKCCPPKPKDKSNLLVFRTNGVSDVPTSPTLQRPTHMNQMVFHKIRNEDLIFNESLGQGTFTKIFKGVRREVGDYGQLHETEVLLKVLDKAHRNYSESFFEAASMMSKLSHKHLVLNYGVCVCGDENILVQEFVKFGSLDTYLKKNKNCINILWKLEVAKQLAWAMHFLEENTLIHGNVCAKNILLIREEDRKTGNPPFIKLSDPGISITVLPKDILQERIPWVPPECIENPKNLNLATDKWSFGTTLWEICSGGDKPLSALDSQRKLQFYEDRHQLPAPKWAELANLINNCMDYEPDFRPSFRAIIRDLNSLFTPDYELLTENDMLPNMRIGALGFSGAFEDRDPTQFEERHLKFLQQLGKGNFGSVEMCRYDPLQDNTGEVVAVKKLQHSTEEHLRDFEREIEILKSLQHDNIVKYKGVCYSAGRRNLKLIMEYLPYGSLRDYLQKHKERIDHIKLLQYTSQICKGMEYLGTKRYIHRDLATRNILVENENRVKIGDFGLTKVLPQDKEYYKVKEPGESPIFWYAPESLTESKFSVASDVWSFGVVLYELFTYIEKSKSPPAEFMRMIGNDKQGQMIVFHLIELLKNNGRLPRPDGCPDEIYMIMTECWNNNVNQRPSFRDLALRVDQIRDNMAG

As a reminder, the IC50 is the point on the concentration scale where inhibition reaches its midpoint. Low readings indicate greater potency in that assay, high ones weaker potency in that assay. Regarding `C[C@H](Nc1nc(Nc2cnccn2)cc(-c2cccnc2)n1)c1ccc(F)cc1` [Example 32, (S)—N^2-[1-(4-Fluorophenyl)ethyl]-N^4-(pyrazin-2-yl)-6-(pyridin-3-yl)pyrimidine-2,4-diamine ½ maleate], the IC50 against JAK2 tyrosine kinase is 0.5 nM; against JAK3 tyrosine kinase it was 68 nM.
For the compound `CC(=O)N[C@H]1CCN(c2cc(Nc3cnccn3)nc(N[C@@H](C)c3ccc(F)cc3)n2)C1` [Example 33, N-{(S)-1-[2-{[(S)-1-(4-Fluorophenyl)ethyl]amino}-6-(pyrazin-2-ylamino)pyrimidin-4-yl]pyrrolidin-3-yl}acetamide maleate], the half-inhibitory concentration (IC50) was determined as 0.4 nM against JAK2 tyrosine kinase and 30 nM on JAK3 tyrosine kinase.
On to `C[C@H](Nc1nc(Nc2cnccn2)cc(-c2cn[nH]c2)n1)c1ccc(F)cc1` [Example 34, (S)—N^2-[1-(4-Fluorophenyl)ethyl]-N^4-(pyrazin-2-yl)-6-(1H-pyrazol-4-yl)pyrimidine-2,4-diamine maleate], for which the IC50 against JAK2 tyrosine kinase came to 0.51 nM; against JAK3 tyrosine kinase it was 59 nM.
For the compound `C[C@H](Nc1nc(Nc2cnccn2)cc(-c2cccc(S(C)(=O)=O)c2)n1)c1ccc(F)cc1` [Example 35, (S)—N^2-[1-(4-Fluorophenyl)ethyl]-6-[3-(methylsulfonyl)phenyl]-N^4-(pyrazin-2-yl) yrimidine-2,4-diamine hydrochloride], the IC50 against JAK2 tyrosine kinase came to 2.5 nM; against JAK3 tyrosine kinase, 440 nM.
For the compound `C[C@H](Nc1cc(-c2ccc(S(C)(=O)=O)cc2)cc(Nc2cnccn2)n1)c1ccc(F)cc1` [Example 36, (S)—N^2-[1-(4-Fluorophenyl)ethyl]-4-[4-(methylsulfonyl)phenyl]-N^6-(pyrazin-2-yl)pyridine-2,6-diamine hydrochloride], the IC50 on JAK2 tyrosine kinase was found to be 2.8 nM; at JAK3 tyrosine kinase, 200 nM.
Consider `CC(C)n1cc(-c2cc(Nc3cnccn3)nc(N[C@@H](C)c3ccc(F)cc3)c2)cn1` [Example 37, (S)—N^2-[1-(4-Fluorophenyl)ethyl]-4-(1-isopropyl-1H-pyrazol-4-yl)-N^6-(pyrazin-2-yl)pyridine-2,6-diamine hydrochloride], for which the IC50 was 3.2 nM at JAK2 tyrosine kinase and 130 nM against JAK3 tyrosine kinase.
As to `CC(=O)N[C@H]1CCN(c2cc(Nc3cnccn3)nc(N[C@@H](C)c3ccc(F)cc3)c2)C1` [Example 38, N-{(S)-1-[2-{[(S)-1-(4-Fluorophenyl)ethyl]amino}-6-(pyrazin-2-ylamino)pyridin-4-yl]pyrrolidin-3-yl}acetamide hydrochloride], the IC50 on JAK2 tyrosine kinase was 2.3 nM; at JAK3 tyrosine kinase, 85 nM.
In the same order, the values of `C[C@H](Nc1cc(N2CCOCC2)cc(Nc2cnccn2)n1)c1ccc(F)cc1` [Example 39, (S)—N^2-[1-(4-Fluorophenyl)ethyl]-4-morpholine-N^6-(pyrazin-2-yl)pyridine-2,6-diamine] are 0.93 nM and 90 nM.
Regarding `C[C@H](Nc1cc(N2CCSCC2)cc(Nc2cnccn2)n1)c1ccc(F)cc1` [Example 40, (S)—N^2-[1-(4-Fluorophenyl)ethyl]-N^6-(pyrazin-2-yl)-4-thiomorpholinopyridine-2,6-diamine], the IC50 is 3.4 nM on JAK2 tyrosine kinase and 310 nM on JAK3 tyrosine kinase.
`C[C@H](Nc1cc(OCCCO)cc(Nc2cnccn2)n1)c1ccc(F)cc1` [Example 41, hydrochloride]: the IC50 stood at 1.1 nM on JAK2 tyrosine kinase and 51 nM against JAK3 tyrosine kinase.
For the compound `CC(=O)NC1CN(c2cc(Nc3cnccn3)nc(N[C@@H](C)c3ccc(F)cc3)n2)C1` [Example 42, (S)—N-(1-{2-[1-(4-Fluorophenyl)ethylamino]-6-(pyrazin-2-ylamino)pyrimidin-4-yl}azetidin-3-yl)acetamide], the IC50 on JAK2 tyrosine kinase is 1 nM; at JAK3 tyrosine kinase it was 66 nM.
For the compound `C[C@H](Nc1nc(Nc2cnccn2)cc(N2CCC2)n1)c1ccc(F)cc1` [Example 43, (S)-6-(Azetidin-1-yl)-N^2-[1-(4-fluorophenyl)ethyl]-N^4-(pyrazin-2-yl)pyrimidine-2,4-diamine], the IC50 is 1.2 nM at JAK2 tyrosine kinase and 130 nM at JAK3 tyrosine kinase.
`C[C@H](Nc1nc(Nc2cnccn2)cc(N2CC(F)C2)n1)c1ccc(F)cc1` [Example 44, (S)-6-(3-Fluoroazetidin-1-yl)-N^2-[1-(4-fluorophenyl)ethyl]-N^4-(pyrazin-2-yl)pyrimidine-2,4-diamine]: the IC50 against JAK2 tyrosine kinase worked out at 2.1 nM; on JAK3 tyrosine kinase, 140 nM.
In the same order, the values of `C[C@H](Nc1nc(Nc2cnccn2)cc(N2CCC2=O)n1)c1ccc(F)cc1` [Example 45, (S)-1-{2-[1-(4-Fluorophenyl)ethylamino]-6-(pyrazin-2-ylamino)pyrimidin-4-yl}azetidin-2-one] are 9 nM and 2300 nM.
In the same order, the values of `CCn1cc(-c2cc(Nc3cnccn3)nc(N[C@@H](C)c3ccc(F)cc3)c2)cn1` [Example 46, (S)-4-(1-Ethyl-1H-pyrazol-4-yl)-N^2-[1-(4-fluorophenyl)ethyl]-N^6-(pyrazin-2-yl)pyridine-2,6-diamine] are 3.7 nM and 93 nM.
In the case of `C[C@H](Nc1cc(-c2ccnn2C)cc(Nc2cnccn2)n1)c1ccc(F)cc1` [Example 47, (S)—N^2-[1-(4-Fluorophenyl)ethyl]-4-(1-methyl-1H-pyrazol-5-yl)-N^6-(pyrazin-2-yl)pyridine-2,6-diamine], the IC50 was determined as 12 nM against JAK2 tyrosine kinase and 1300 nM on JAK3 tyrosine kinase.
In the case of `C[C@H](Nc1cc(-c2cnn(CC3CC3)c2)cc(Nc2cnccn2)n1)c1ccc(F)cc1` [Example 48, (S)-4-[1-(Cyclopropylmethyl)-1H-pyrazol-4-yl]-N^2-[1-(4-fluorophenyl)ethyl]-N^6-(pyrazin-2-yl)pyridine-2,6-diamine], the concentration for half-maximal inhibition (IC50) stood at 6 nM at JAK2 tyrosine kinase and 140 nM against JAK3 tyrosine kinase.
Taken in the same sequence, the figures for `C[C@H](Nc1nc(Nc2cnccn2)cc(-c2cncs2)n1)c1ccc(F)cc1` [Example 49, (S)—N^2-[1-(4-Fluorophenyl)ethyl]-N^4-(pyrazin-2-yl)-6-(thiazol-5-yl)pyrimidine-2,4-diamine] were 2.3 nM and 170 nM.
With `C[C@H](Nc1nc(Nc2cnccn2)cc(-c2cncnc2)n1)c1ccc(F)cc1` [Example 52, (S)—N^2-[1-(4-Fluorophenyl)ethyl]-N^6-(pyrazin-2-yl)-4,5′-bipyrimidine-2,6-diamine], the figures for the IC50 against JAK2 tyrosine kinase and on JAK3 tyrosine kinase were 2 nM and 160 nM, respectively.
